Experimental data taken from BindingDB's records for doi:10.1016/j.bmcl.2013.11.055 (Shanghai Hengrui Pharmaceutical, 2013).

Key:
[1] = Antagonist activity at P2Y12 receptor in rat platelet-rich plasma assessed as inhibition of ADP-induced platelet aggregation incubated for 5 mins prior to ADP-challenge by light transmission-based assay
[2] = Antagonist activity at P2Y12 receptor in human platelet-rich plasma assessed as inhibition of ADP-induced platelet aggregation incubated for 5 mins prior to ADP-challenge by light transmission-based assay

| IC50 [1] | IC50 [2] | SMILES |
| --- | --- | --- |
| 1380 nM | 11300 nM | CCCSc1nc(N[C@@H]2C[C@H]2c2ccc(F)c(F)c2)c2nnn([C@H]3[C@H](O)[C@H](O)[C@@H](OCCO)[C@@H]3O)c2n1 |
| 1810 nM |  | CCCSc1nc(N[C@@H]2C[C@H]2c2scnc2C)c2nnn([C@@H]3C[C@H](OCCO)[C@@H](O)[C@H]3O)c2n1 |
| 148 nM |  | CCCSc1nc(N[C@@H]2C[C@H]2c2ccc(F)c(F)c2)c2nnn([C@@H]3C[C@H](OCC(O)CO)[C@@H](O)[C@H]3O)c2n1 (stereo not given in full) |
| 31300 nM |  | CCCSc1nc(N[C@@H]2C[C@H]2c2ccc(F)c(F)c2)c2nnn([C@@H]3C[C@H](OCC(F)F)[C@@H](O)[C@H]3O)c2n1 |
| 1520 nM |  | CCCSc1nc(N[C@@H]2C[C@H]2c2cccnc2)c2nnn([C@@H]3C[C@H](OCCO)[C@@H](O)[C@H]3O)c2n1 |
| 290 nM | 220 nM | CCCSc1nc(N[C@@H]2C[C@H]2c2ccc(F)c(F)c2)c2nnn([C@H]3[C@H](O)[C@H](O)[C@@H](O)[C@H]3F)c2n1 |
| 480 nM | 350 nM | CCCSc1nc(N[C@@H]2C[C@H]2c2ccc(F)c(F)c2)c2nnn([C@H]3[C@H](O)[C@H](O)[C@@H](OCCO)[C@H]3F)c2n1 |
|  | 1670 nM | CCCSc1nc(N[C@@H]2C[C@H]2c2ccc(F)c(F)c2)c2nnn([C@H]3[C@H](O)[C@H](O)[C@@H](O)[C@@H]3F)c2n1 |
| 1250 nM | 1730 nM | CCCSc1nc(N[C@@H]2C[C@H]2c2ccc(F)c(F)c2)c2nnn(C3[C@H](O)[C@H](O)[C@@H](O)[C@H]3O)c2n1 (stereo not given in full) |
| 110 nM | 330 nM | CCCSc1nc(N[C@@H]2C[C@H]2c2ccc(F)c(F)c2)c2nnn([C@@H]3C[C@H](F)[C@@H](O)[C@H]3O)c2n1 |
| 850 nM | 1970 nM | CCCSc1nc(N[C@@H]2C[C@H]2c2ccc(F)c(F)c2)c2nnn([C@@H]3C=C[C@@H](O)[C@H]3O)c2n1 |
| 160 nM | 280 nM | CCCSc1nc(N[C@@H]2C[C@H]2c2ccc(Cl)s2)c2nnn([C@@H]3C[C@H](OCCO)[C@@H](O)[C@H]3O)c2n1 |
| 650 nM | 16300 nM | CCCSc1nc(N[C@@H]2C[C@H]2c2ccc(F)c(F)c2)c2nnn([C@H]3[C@H](O)[C@H](O)[C@@H](O)[C@@H]3O)c2n1 |
|  | 500 nM | CCCSc1nc(N[C@@H]2C[C@H]2c2ccc(F)c(F)c2)c2nnn([C@@H]3C[C@H](OCCO)[C@@H](O)[C@H]3O)c2n1 [AR-C126532XX] |
| 410 nM | 4820 nM | CCCSc1nc(N[C@@H]2C[C@H]2c2ccc(F)c(F)c2)c2nnn([C@@H]3C[C@H](OCC(F)CO)[C@@H](O)[C@H]3O)c2n1 (stereo not given in full) |
|  | 6350 nM | CCCSc1nc(N[C@@H]2C[C@H]2c2ccc(F)c(F)c2)c2nnn([C@H]3[C@H](O)[C@H](O)[C@@H](OCCO)[C@@H]3F)c2n1 |
